Measured values from US12384797B2, “Thioeno[3,2-b] pyridin-7-amine compounds for treating familial dysautonomia” (PTC THERAPEUTICS, INC., priority 2019, dated 2025).

The compounds below were run on Elongator complex protein 1 (ELP1, also referred to as IKBKAP) (assay: IKBKAP-HTRF assay (IKBKAP protein in lysates of FD patient-derived fibroblasts)). Conditions: 48 hours incubation, 7-point concentration curve.
Assay type: cell-based, human
Description: The assay is used for the quantitative determination of Elongator complex protein 1 (ELP1, also referred to as IKBKAP) concentration in cell lysates using the HTRF® (Homogeneous Time-Resolved Fluorescence) technology. IKBKAP is detected in a sandwich HTRF assay by use of an anti-IKAP antibody labeled with a donor and an anti-IKAP antibody labeled with an acceptor.
Cells were thawed and incubated in DMEM-10% FBS for 72 hours. Cells were trypsinized, counted, and re-suspended to a concentration of 50,000 cells/mL in DMEM-10% FBS. A 199 μL aliquot of the cell suspensions were plated at 10,000 cells per well in a 96 well microtiter plate and incubated for 3 to 5 hours. […] Test compounds were serially diluted 3.16-fold in 100% DMSO to generate a 7-point concentration curve. A 1 μL aliquot of 200× compound solution was transferred to cell-containing wells, and cells were incubated for 48 hours in a cell culture incubator (37° C., 5% CO2, 100% relative humidity). Triplicate samples were set up for each compound concentration. After 48 hours, the supernatant was removed from the cells and 50 μL of the 1×LB4 lysis buffer, containing protease inhibitors, was added to the cells and incubated with shaking at room temperature for 1 hour. A 36 μL aliquot of this lysate was subsequently transferred to the 384-well plate containing 4 μL of the antibody solution (1:50 dilution of anti IKAP d2 and anti-IKAP K(9+8) in detection buffer). The 384-well plate was then centrifuged for 1 minute to bring the solutions to the bottom of the plate and incubated overnight at 4° C. Fluorescence for each well of the plate at 665 nm and 620 nm was measured was on the EnVision plate reader (Perkin Elmer). The ΔF for each sample is calculated by:
[formula] wherein Signal is the normalized fluorescence for each sample well and Blank is the average normalized average fluorescence for the Blank control wells.
The maximum fold increase (MFI) in IKBKAP protein abundance for compounds of Formula (I) or a form thereof relative to the vehicle control are provided in Table 1. MFI was calculated by dividing the ΔF value for each sample well by the sample ΔF for the vehicle control wells.
The EC2x for IKBKAP protein expression obtained from the 7-point concentration curve generated for each test compound according to the protocol in Biological Example 1 are also provided in Table 1. The term “EC2x for IKBKAP protein expression” is defined as the concentration of test compound that is effective in producing two times the amount of IKBKAP protein in a FD patient cell compared to the amount produced from the DMSO vehicle control.

SMILES	EC2x for IKBKAP protein expression (concentration producing two times the amount of IKBKAP protein vs DMSO vehicle control)	MFI (maximum fold increase in IKBKAP protein abundance relative to the vehicle control)
Cc1c([C@H](N)C(C)C)sc2c(NCc3ccco3)cc(Cl)nc12 [Compound 31, 2-[(1R)-1-amino-2-methylpropyl]-5-chloro-N-[(furan-2-yl)methyl]-3-methylthieno[3,2-b]pyridin-7-amine]	* (An EC2x>1 μM is indicated by one star (*))	* (An MFI≤1.9 is indicated by one star (*))
CN[C@H](c1sc2c(NCc3ccco3)cc(Cl)nc2c1C)C(C)C [Compound 32, 5-chloro-N-[(furan-2-yl)methyl]-3-methyl-2-[(1S)-2-methyl-1-(methylamino)propyl]thieno[3,2-b]pyridin-7-amine]	* (An EC2x>1 μM is indicated by one star (*))	* (An MFI≤1.9 is indicated by one star (*))
CC[C@H](N)Cc1sc2c(NCc3cccs3)cc(Cl)nc2c1C [Compound 33, 2-[(2S)-2-aminobutyl]-5-chloro-3-methyl-N-[(thiophen-2-yl)methyl]thieno[3,2-b]pyridin-7-amine]	***** (≤0.005 μM is indicated by five stars (*****))	***** (>4.9 is indicated by five stars (*****))
Cc1c(C[C@H](C)N)sc2c(NCc3ccco3)ccnc12 [Compound 34, 2-[(2S)-2-aminopropyl]-N-[(furan-2-yl)methyl]-3-methylthieno[3,2-b]pyridin-7-amine]	**** (between >0.005 μM and ≤0.02 μM is indicated by four stars (****))	***** (>4.9 is indicated by five stars (*****))
Cc1c(C[C@H](C)N)sc2c(NCc3ccncc3F)cc(Cl)nc12 [Compound 35, 2-[(2S)-2-aminopropyl]-5-chloro-N-[(3-fluoropyridin-4-yl)methyl]-3-methylthieno[3,2-b]pyridin-7-amine]	***** (≤0.005 μM is indicated by five stars (*****))	***** (>4.9 is indicated by five stars (*****))
C[C@H](N)Cc1sc2c(NCc3ccco3)cc(Cl)nc2c1Cl [Compound 36, 2-[(2S)-2-aminopropyl]-3,5-dichloro-N-[(furan-2-yl)methyl]thieno[3,2-b]pyridin-7-amine]	***** (≤0.005 μM is indicated by five stars (*****))	***** (>4.9 is indicated by five stars (*****))
C[C@H](N)Cc1sc2c(NCc3ccco3)cc(Cl)nc2c1Br [Compound 37, 2-[(2S)-2-aminopropyl]-3-bromo-5-chloro-N-[(furan-2-yl)methyl]thieno[3,2-b]pyridin-7-amine]	***** (≤0.005 μM is indicated by five stars (*****))	***** (>4.9 is indicated by five stars (*****))
C[C@H](N)Cc1sc2c(NCc3nccs3)cc(Cl)nc2c1Cl [Compound 38, 2-[(2S)-2-aminopropyl]-3,5-dichloro-N-[(1,3-thiazol-2-yl)methyl]thieno[3,2-b]pyridin-7-amine]	***** (≤0.005 μM is indicated by five stars (*****))	***** (>4.9 is indicated by five stars (*****))
N[C@@H](CO)Cc1sc2c(NCc3ccco3)cc(Cl)nc2c1Cl [Compound 39, (2R)-2-amino-3-(3,5-dichloro-7-{[(furan-2-yl)methyl]amino}thieno[3,2-b]pyridin-2-yl)propan-1-ol]	***** (≤0.005 μM is indicated by five stars (*****))	***** (>4.9 is indicated by five stars (*****))
COC[C@H](N)Cc1sc2c(NCc3ccco3)cc(Cl)nc2c1Cl [Compound 40, 2-[(2R)-2-amino-3-methoxypropyl]-3,5-dichloro-N-[(furan-2-yl)methyl]thieno[3,2-b]pyridin-7-amine]	***** (≤0.005 μM is indicated by five stars (*****))	***** (>4.9 is indicated by five stars (*****))
N[C@@H](CO)Cc1sc2c(NCc3ccco3)cc(Cl)nc2c1Br [Compound 41, (2R)-2-amino-3-(3-bromo-5-chloro-7-{[(furan-2-yl)methyl]amino}thieno[3,2-b]pyridin-2-yl)propan-1-ol]	***** (≤0.005 μM is indicated by five stars (*****))	***** (>4.9 is indicated by five stars (*****))
CN[C@@H](C)Cc1sc2c(NCc3ccco3)cc(Cl)nc2c1C [Compound 42, 5-chloro-N-[(furan-2-yl)methyl]-3-methyl-2-[(2S)-2-(methylamino)propyl]thieno[3,2-b]pyridin-7-amine]	**** (between >0.005 μM and ≤0.02 μM is indicated by four stars (****))	***** (>4.9 is indicated by five stars (*****))
C[C@H](N)Cc1sc2c(NCc3nccs3)cc(Cl)nc2c1Br [Compound 43, 2-[(2S)-2-aminopropyl]-3-bromo-5-chloro-N-[(1,3-thiazol-2-yl)methyl]thieno[3,2-b]pyridin-7-amine]	***** (≤0.005 μM is indicated by five stars (*****))	***** (>4.9 is indicated by five stars (*****))
COC[C@H](N)Cc1sc2c(NCc3ccco3)cc(Cl)nc2c1Br [Compound 44, 2-[(2R)-2-amino-3-methoxypropyl]-3-bromo-5-chloro-N-[(furan-2-yl)methyl]thieno[3,2-b]pyridin-7-amine]	***** (≤0.005 μM is indicated by five stars (*****))	***** (>4.9 is indicated by five stars (*****))
COC[C@H](N)Cc1sc2c(NCc3ccco3)cc(Cl)nc2c1C [Compound 45, 2-[(2R)-2-amino-3-methoxypropyl]-5-chloro-N-[(furan-2-yl)methyl]-3-methylthieno[3,2-b]pyridin-7-amine]	***** (≤0.005 μM is indicated by five stars (*****))	***** (>4.9 is indicated by five stars (*****))
N[C@@H](CF)Cc1sc2c(NCc3ccco3)cc(Cl)nc2c1Br [Compound 46, 2-[(2R)-2-amino-3-fluoropropyl]-3-bromo-5-chloro-N-[(furan-2-yl)methyl]thieno[3,2-b]pyridin-7-amine]	***** (≤0.005 μM is indicated by five stars (*****))	***** (>4.9 is indicated by five stars (*****))
N[C@@H](CCF)Cc1sc2c(NCc3nccs3)cc(Cl)nc2c1Cl [Compound 47, 2-[(2S)-2-amino-4-fluorobutyl]-3,5-dichloro-N-[(1,3-thiazol-2-yl)methyl]thieno[3,2-b]pyridin-7-amine]	***** (≤0.005 μM is indicated by five stars (*****))	***** (>4.9 is indicated by five stars (*****))
N[C@@H](CCO)Cc1sc2c(NCc3nccs3)cc(Cl)nc2c1Cl [Compound 48, (3S)-3-amino-4-(3,5-dichloro-7-{[(1,3-thiazol-2-yl)methyl]amino}thieno[3,2-b]pyridin-2-yl)butan-1-ol]	***** (≤0.005 μM is indicated by five stars (*****))	***** (>4.9 is indicated by five stars (*****))
